In patent US7402605B2, “8-azaprostaglandin derivative compounds and drugs containing the compounds as the active ingredient” (Ono Pharmaceutical Co., Ltd., priority 2002, dated 2008):
pKi: −log10 of the molar value.

Biological target: T1, mouse EP2 receptor (Mus musculus, UniProt Q62053)
T1 construct: expressed in transfected cells; host or cells: CHO cells (membrane fraction)
Experiment: Receptor-binding experiment (3H-PGE2 displacement) using membranes of CHO cells expressing prostanoid receptor sub-type EP2
Conditions: inhibition of 3H-PGE2 (2.5 nM) binding, CHO cell membrane fraction, room temperature 1 hour, pH 6.0; Ki=IC50/(1+([C]/Kd))
Protocol: (i) Experiment for Receptor-Binding Using Cells Which Express Prostanoid Receptor Sub-Types
According to the method of Sugimoto et al. (J. Biol. Chem., 267, 6463-6466 (1992)), CHO cells which expressed prostanoid receptor sub-types (murine EP1, EP2, EP3α, and EP4, respectively) were prepared and used as membrane authentic samples.
A reaction solution (200 μl) containing the prepared membrane fraction (0.5 mg/ml) and ^3H-PGE2 was incubated at room temperature for 1 hour. The reaction was terminated with ice cold buffer (3 ml), and the reaction mixture was filtered under suction through a glass filter (GF/B), on which the binding ^3H-PGE2 was trapped, and the binding radioactivity was measured by means of a liquid scintillator.
The Kd value was obtained from the Scatchard plots [Ann. N.Y. Acad. Sci., 51, 660 (1949)]. Non-specific binding was obtained as the binding in the presence of an excess amount (2.5 μM) of unlabelled PGE2. Measurement of the binding inhibition for ^3H-PGE2 with the compounds of the present invention was performed by adding ^3H-PGE2 (2.5 nM) and a series of concentrations of the compound of the present invention. In this reaction, the following buffer was used in all cases. • Buffer: 10 mM potassium phosphate (pH 6.0), 1 mM EDTA, 10 mM MgCl2, and 0.1M NaCl.
Dissociation constant Ki (μM) of each compound was calculated from the following equation. […]

T1 sequence (Q62053 whole entry): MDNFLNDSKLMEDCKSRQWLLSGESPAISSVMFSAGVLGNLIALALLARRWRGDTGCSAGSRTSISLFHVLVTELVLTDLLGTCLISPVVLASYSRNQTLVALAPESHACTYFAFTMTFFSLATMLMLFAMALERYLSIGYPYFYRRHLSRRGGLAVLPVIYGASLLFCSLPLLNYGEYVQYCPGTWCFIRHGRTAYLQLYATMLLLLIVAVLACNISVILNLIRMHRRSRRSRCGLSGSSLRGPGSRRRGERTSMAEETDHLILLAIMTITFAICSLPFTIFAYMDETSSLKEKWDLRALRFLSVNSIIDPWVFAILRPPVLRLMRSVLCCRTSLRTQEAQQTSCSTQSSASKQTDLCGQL

pKi: 7.85
Structure (SMILES): CCCCc1ccc(C2CCC(=O)N2CCSc2nc(C(=O)O)cs2)cc1 (stereo not shown) [Example 4(1), 2-(2-(2-(4-n-butylphenyl)-5-oxopyrrolidin-1-yl)ethylthio)thiazole-4-carboxylic acid]
